Results taken from patent EP1144402B1, “SUBSTITUTED OXIMES AND HYDRAZONES AS NEUROKININ ANTAGONISTS” (SCHERING CORPORATION, priority 1998, dated 2000).

Tests used:
NK2 receptor = biological target: T1, NK2 receptor (Homo sapiens, UniProt P21452); test: neurokinin receptor binding assay (NK2)
T1 sequence (P21452 1-398): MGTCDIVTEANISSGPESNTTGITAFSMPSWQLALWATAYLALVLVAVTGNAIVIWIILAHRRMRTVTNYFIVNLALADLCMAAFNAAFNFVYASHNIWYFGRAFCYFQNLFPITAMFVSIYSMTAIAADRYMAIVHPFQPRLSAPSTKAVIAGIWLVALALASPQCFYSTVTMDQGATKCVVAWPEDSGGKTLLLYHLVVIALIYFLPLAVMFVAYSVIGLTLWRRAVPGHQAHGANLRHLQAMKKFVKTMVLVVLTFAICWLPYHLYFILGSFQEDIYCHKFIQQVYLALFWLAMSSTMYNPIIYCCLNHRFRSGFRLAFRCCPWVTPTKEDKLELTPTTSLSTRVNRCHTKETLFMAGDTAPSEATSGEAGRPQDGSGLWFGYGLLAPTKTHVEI
Text: (§1) The in vitro and in vivo activity of the compounds of formula I can be determined by various procedures known in the art, such as a test for their ability to inhibit the activity of the NK1 agonist Substance P, an isolated hamster trachea NK2 assay, a test of the effect of NK1 antagonists on Substance P-induced airway microvascular leakage, measurement of NK2 activity in vivo in guinea pigs, measurement of bronchoconstriction due to NKA, and neurokinin receptor binding assay(s). NK3 activity is determined by following a procedure similar to that described in the literature, e.g., Molecular Pharmacol., 48 (1995), p. 711-716. Typical procedures for determining NK1 and NK2 activity are described in U.S. 5,696,267, incorporated herein by reference.
(§2) % Inhibition of neurokinin agonist activity is the difference between the percent of maximum specific binding (MSB) and 100%. The percent of MSB is defined by the following equation, wherein "dpm" is disintegrations per minute: % MSB =((dpm of unknown) - (dpm of nonspecific binding))/((dpm of total binding) - (dpm of nonspecific binding))X 100 [formula]
Using the test procedures known in the art, the following data (% inhibition or Ki) were obtained for preferred and/or representative compounds of formula I: […]

NK1 receptor = NK1 receptor (Homo sapiens, UniProt P25103); test: neurokinin receptor binding assay (NK1)
Text: as §1, with “711-716.” for “711-716. Typical procedures for determining NK1 and NK2 activity are described in U.S. 5,696,267, incorporated herein by reference.”
as §2

NK1 receptor, sequence (P25103 whole entry, species assumed): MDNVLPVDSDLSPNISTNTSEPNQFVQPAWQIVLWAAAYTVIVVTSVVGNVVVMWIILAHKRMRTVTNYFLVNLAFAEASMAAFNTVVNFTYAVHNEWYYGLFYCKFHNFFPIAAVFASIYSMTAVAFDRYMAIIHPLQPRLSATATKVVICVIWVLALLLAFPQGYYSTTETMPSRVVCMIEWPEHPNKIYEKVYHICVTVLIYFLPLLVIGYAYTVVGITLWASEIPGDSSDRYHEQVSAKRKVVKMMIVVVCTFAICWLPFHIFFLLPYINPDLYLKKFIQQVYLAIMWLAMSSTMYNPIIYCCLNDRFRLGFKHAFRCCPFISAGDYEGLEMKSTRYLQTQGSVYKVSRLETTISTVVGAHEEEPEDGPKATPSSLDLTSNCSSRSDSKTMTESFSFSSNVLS

SMILES | Ki (NK2 receptor) | Ki (NK1 receptor)
CO/N=C(\CN(C)C(=O)c1cc(Cl)cc(Cl)c1)[C@H](CCN1CCC(N2CCCN(CC(C)(C)O)C2=O)CC1)c1ccc(Cl)c(Cl)c1 [Example 6K] | 0.8 nM | 
CO/N=C(\CN(C)C(=O)c1cc(Cl)cc(Cl)c1)[C@H](CCN1CCC(N2CCCN(Cc3nn[nH]n3)C2=O)CC1)c1ccc(Cl)c(Cl)c1 [Example 6S] | 0.9 nM | 1 nM
CO/N=C(\CN(C)C(=O)c1cc(Cl)cc(Cl)c1)[C@H](CCN1CCC(n2c(=O)[nH]c3ccccc32)CC1)c1ccc(Cl)c(Cl)c1 [Example 18A] | 1 nM | 1.2 nM
